# Reference: paper PMC10916382, “Repurposing screen identifies novel candidates for broad-spectrum coronavirus antivirals and druggable host targets” (Antimicrobial Agents and Chemotherapy, 2024)
# Like-named read-outs stand apart in the source and are kept apart here.
# Assays:
# in vitro [1] = conditions: human
# in vitro [2] = conditions: for viability: Anti-SARS-CoV-2 screening on Calu-3 cells: viability [% of control], Calu-3 cells
# HCoV-229E = experiment: microbe, parasite or virus in culture; format: cell-based, Homo sapiens sapiens; conditions: Human coronavirus 229E, Huh7.5, read-out: IC50 (µM), HCoV 229E
# [3] = Huh-7.5/F-Luc cells, maximum tested dose 5 µM
# [4] = Calu-3 cells, immunofluorescence imaging
SMILES,CC50 (µM) (Huh-7.5/F-Luc cells; [3]),viability at 5 µM (in vitro [1]) [%],Anti-SARS-CoV-2 screening on Calu-3 cells: intracellular SARS-CoV-2 infection measured via immunofluorescence imaging [% of control] (SARS-CoV-2; [4]),viability (in vitro [2]) [%],IC50 (HCoV-229E) [µM],CC50 (µM) (Huh-7.5/F-Luc cells),Anti-SARS-CoV-2 screening on Calu-3 cells: intracellular SARS-CoV-2 infection measured via immunofluorescence imaging [% of control] (SARS-CoV-2),"viability at 48 h, 5 µM (in vitro [2]) [%]"
CCCN(CCC)C(=O)C(Cc1ccc(OCCCN2CCN(C)CC2)cc1)NC(=O)c1cccc(Cl)c1 (stereo not shown) [RFM-012-155-1],greater than maximum tested dose,126,95.12 % of control,104,3.67,–,–,–
CCCCCCOC(=O)NC(=N)c1ccc(NCc2nc3cc(C(=O)N(CCC(=O)OCC)c4ccccn4)ccc3n2C)cc1 [RFM-002-982-3],greater than maximum tested dose,126,100.41 % of control,106,3.13,–,–,–
CN(C)CCC=C1c2ccccc2C(C)(C)c2ccccc21 [RFM-000-885-5],greater than maximum tested dose,152,109.53 % of control,93,1.34,–,–,–
OC1CCN(CCCN2c3ccccc3Sc3ccc(C(F)(F)F)cc32)C1 (stereo not shown) [RFM-010-589-5],greater than maximum tested dose,146,102.40 % of control,110,1.4,–,–,–
CCCN(CCC)C(=O)C(Cc1ccc(OCCCN2CCN(C)CC2)cc1)NC(=O)c1ccc(Cl)cc1 (stereo not shown) [RFM-009-534-1],greater than maximum tested dose,135,104.27 % of control,103,3.36,–,–,–
Cc1nc(Nc2ncc(N3CCN(C)[C@H](C)C3)c(Nc3cc(C)n(C)n3)n2)cc(C2CC2)c1F [RFM-012-989-5],greater than maximum tested dose,125,114.63 % of control,114,1.97,–,–,–
CC(OCCN1CCCCCC1)(c1ccccc1)c1ccc(Cl)cc1 (stereo not shown) [RFM-000-944-9],greater than maximum tested dose,146,104.31 % of control,95.3,1.87,–,–,–
CN1CCN(CC/C=C2/c3ccccc3Sc3ccc(S(=O)(=O)N(C)C)cc32)CC1 [RFM-003-384-1],–,148,–,–,1.22,greater than maximum tested dose,116.45 % of control,114
OCCN1CCN(CCCN2c3ccccc3Sc3ccc(Cl)cc32)CC1 [RFM-000-391-8],greater than maximum tested dose,181,116.90 % of control,–,1.84,–,–,110
COc1cc2c(cc1NS(=O)(=O)c1ccc(-c3ccc(Cl)s3)cc1)CCN(C)CC2 [RFM-010-759-5],greater than maximum tested dose,133,107.82 % of control,92.9,1.73,–,–,–
OCCN1CCN(CCCC2c3ccc(F)cc3Sc3ccc(C(F)(F)F)cc32)CC1 (stereo not shown) [RFM-010-066-3],greater than maximum tested dose,148,109.58 % of control,86.5,2.98,–,–,–
